From US8420657B2 (Novartis AG, priority 2008, dated 2013)

Key:
GST-JAK2(808-1132) = biological target: T1, GST-JAK2(808-1132) (Homo sapiens, UniProt O60674); experiment: JAK2 kinase assay (Caliper mobility shift, LabChip 3000); assay type: biochemical
T1 construct: GST-JAK2(808-1132); purchased Invitrogen (Carlsbad, USA) #4288
Outline: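 Recombinant GST-JAK2(808-1132) kinase domain with FITC-labelled JAK3tide peptide substrate and ATP; 60 min at 30 °C, EDTA stop. Substrate/product ratio read by microfluidic mobility shift; compounds at 8 final concentrations, 10 to 0.003 μM.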

[1] = system: JAK1/JAK2-dependent nuclear translocation of STAT1-GFP in HT1080 fibrosarcoma cells; experiment: STAT1 nuclear translocation assay (Cellomics), IFN-γ stimulated HT1080 STAT1-GFP cells; assay type: cell-based
Outline: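 HT1080 cells stably expressing STAT1-GFP, pre-treated 30 min with compound (10 μM–0.003 μM, 0.1% DMSO), then stimulated 2 h with 100 ng/ml IFN-γ, fixed and Hoechst-stained. Nuclear-cytoplasmic GFP differential imaged over ≥1000 cells/well, normalised to unstimulated and DMSO-stimulated wells for IC50.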

[2] = Homo sapiens, HT-1080, STAT1 translocation pathway

T1 sequence (O60674 808-1132): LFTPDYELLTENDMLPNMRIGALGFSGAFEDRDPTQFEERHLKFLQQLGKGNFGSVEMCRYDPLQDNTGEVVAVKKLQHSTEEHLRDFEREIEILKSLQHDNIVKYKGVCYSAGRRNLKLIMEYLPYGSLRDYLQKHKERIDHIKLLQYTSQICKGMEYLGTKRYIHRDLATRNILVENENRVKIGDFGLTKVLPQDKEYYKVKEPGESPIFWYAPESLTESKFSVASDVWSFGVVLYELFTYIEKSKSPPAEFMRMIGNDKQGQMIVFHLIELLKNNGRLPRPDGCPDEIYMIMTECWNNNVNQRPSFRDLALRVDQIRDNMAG

Structure (SMILES) | IC50 (GST-JAK2(808-1132)) | IC50 ([1]; STAT1 translocation pathway) | IC50 [1, 2]
Cc1cc(Nc2ncc3ccn(-c4cc(F)c(C(=O)N5CCOCC5)c(F)c4)c3n2)ccc1F [Example 89, {2,6-Difluoro-4-[2-(4-fluoro-3-methyl-phenylamino)-pyrrolo[2,3-d]pyrimidin-7-yl]-phenyl}-morpholin-4-yl-methanone] | < 3 nM | 410 nM | –
Cc1cc(Nc2ncc3ccn(-c4ccc(C(=O)N5CCOCC5)c(Cl)c4)c3n2)ccc1F [Example 90, {2-Chloro-4-[2-(4-fluoro-3-methyl-phenylamino)-pyrrolo[2,3-d]pyrimidin-7-yl]-phenyl}-morpholin-4-yl-methanone] | 3.4 nM | – | 715 nM
Cc1cc(Nc2ncc3ccn(-c4ccc(C(=O)N5CCOCC5)c(C)c4)c3n2)ccc1F [Example 91, {4-[2-(4-Fluoro-3-methyl-phenylamino)-pyrrolo[2,3-d]pyrimidin-7-yl]-2-methyl-phenyl}-morpholin-4-yl-methanone] | < 3 nM | – | 435 nM
Cc1cc(Nc2ncc3ccn(-c4ccc(C(=O)N5CCOCC5)c(F)c4)c3n2)ccc1F [Example 92, {2-Fluoro-4-[2-(4-fluoro-3-methyl-phenylamino)-pyrrolo[2,3-d]pyrimidin-7-yl]-phenyl}-morpholin-4-yl-methanone] | 4.2 nM | – | 260 nM
CN1CCN(Cc2cccc(Nc3ncc4ccn(-c5ccc(S(C)(=O)=O)cc5)c4n3)c2)CC1 [Example 93] | < 3 nM | – | 191 nM
CN1CCN(C(=O)c2ccc(Nc3ncc4ccn(-c5ccc(S(C)(=O)=O)cc5)c4n3)cc2Cl)CC1 [Example 94, {2-Chloro-4-[7-(4-methanesulfonyl-phenyl)-7H-pyrrolo[2,3-d]pyrimidin-2-ylamino]-phenyl}-(4-methyl-piperazin-1-yl)-methanone] | 3.8 nM | – | 259 nM
CC(C)Oc1ccc(Nc2ncc3ccn(-c4ccc(CC(=O)N5CCN(C)CC5)cc4)c3n2)cc1 [Example 101, 2-{4-[2-(4-Isopropoxy-phenylamino)-pyrrolo[2,3-d]pyrimidin-7-yl]-phenyl}-1-(4-methyl-piperazin-1-yl)-ethanone] | < 3 nM | – | 180 nM

The remaining lines, values ahead:

IC50 (GST-JAK2(808-1132)) | IC50 ([1]; STAT1 translocation pathway) | IC50 [1, 2] | Structure (SMILES)
16.5 nM | – | 2360 nM | CS(=O)(=O)c1ccc(-n2ccc3cnc(Nc4ccc(C#N)cc4)nc32)cc1 [Example 95, 4-[7-(4-Methanesulfonyl-phenyl)-7H-pyrrolo[2,3-d]pyrimidin-2-ylamino]-benzonitrile]
9.4 nM | – | 1460 nM | CC(C)Oc1ccc(Nc2ncc3ccn(-c4ccc(CN5CCOCC5)c(F)c4)c3n2)cc1 [Example 97, [7-(3-Fluoro-4-morpholin-4-ylmethyl-phenyl)-7H-pyrrolo[2,3-d]pyrimidin-2-yl]-(4-isopropoxy-phenyl)-amine]
5.6 nM | – | 575 nM | CC(C)Oc1ccc(Nc2ncc3ccn(-c4ccc(C(=O)N5CCOCC5)c(F)c4)c3n2)cc1 [Example 98, {2-Fluoro-4-[2-(4-isopropoxy-phenylamino)-pyrrolo[2,3-d]pyrimidin-7-yl]-phenyl}-morpholin-4-yl-methanone]
3.9 nM | – | 555 nM | CC(C)Oc1ccc(Nc2ncc3ccn(-c4ccc(C(=O)N5CCOCC5)c(Cl)c4)c3n2)cc1 [Example 99, {2-Chloro-4-[2-(4-isopropoxy-phenylamino)-pyrrolo[2,3-d]pyrimidin-7-yl]-phenyl}-morpholin-4-yl-methanone]
< 3 nM | – | 510 nM | Cc1cc(-n2ccc3cnc(Nc4ccc(OC(C)C)cc4)nc32)ccc1C(=O)N1CCOCC1 [Example 100, {4-[2-(4-Isopropoxy-phenylamino)-pyrrolo[2,3-d]pyrimidin-7-yl]-2-methyl-phenyl}-morpholin-4-yl-methanone]
< 3 nM | – | 275 nM | CC(C)Oc1ccc(Nc2ncc3ccn(-c4ccc(CC(=O)N5CCOCC5)cc4)c3n2)cc1 [Example 102, 2-{4-[2-(4-Isopropoxy-phenylamino)-pyrrolo[2,3-d]pyrimidin-7-yl]-phenyl}-1-morpholin-4-yl-ethanone]
